Here are results for three compounds from patent publication US11634451B2, “Method for the site-specific enzymatic labelling of nucleic acids in vitro by incorporation of unnatural nucleotides” (The Scripps Research Institute, priority 2013, dated 2023).

One assay deals with OneTaq. As to the kind of experiment: PCR amplification assay to determine fidelity, OneTaq (Example 3). Format: biochemical. How it is done:
(§1) PCR assay. PCR amplifications were performed in a total volume of 25 μL and with conditions specific for each assay as described in Table 9. After amplification, a 5 μL aliquot was analyzed on a 6% non-denaturing PAGE gel ran along with 50 bp ladder (Life Technologies) to confirm amplicon size. The remaining solution was purified by spin-column (DNA Clean and Concentrator-5; Zymo Research, Irvine, Calif.), followed by 4% agarose gel, recovered with Zymoclean Gel DNA Recovery Kit (Zymo Research), quantified by fluorescent dye binding (Quant-iT dsDNA HS Assay kit, Life Technologies), and sequenced on a 3730 DNA Analyzer (Applied Biosystems). Fidelity was determined as the average % retention of the unnatural base pair per doubling as described below.
(§2) Determination of fidelity. The percent retention of an unnatural base pair (F) was measured using raw sequencing data and normalized to fidelities per doubling. Briefly, the presence of an unnatural nucleotide leads to a sharp termination of the sequencing profile, while mutation to a natural nucleotide results in “readthrough”. The extent of the “read-through” is thus inversely correlated with the retention of the unnatural base pair. To use the sequencing data as a quantitative measurement of PCR fidelity, we performed calibration experiments in the range of 50-100% retention of the unnatural base pair. Therefore, low retention (<50%) and high “read-through” make the quantification inaccurate.
(§3) Quantification of the high retention (>50%) was performed by adjusting the start and stop points for the Sequencing Analysis software (Applied Biosystems) and then determining the average signal intensity individually for each channel (A, C, G and T) for peaks within those defined points (35-45 nucleotides in length) before (section L) and S36 after (section R) the unnatural nucleotide. The R/L ratio was normalized using sequencing calibration plots to account for both noise in the sequencing chromatograms and the read-through in the control samples. […]

The target in assay [1] is T1, Taq polymerase (Thermus aquaticus, UniProt P19821).
T1 construct: purchased New England Biolabs (Ipswich, Mass.)
As to the kind of experiment: PCR amplification assay to determine fidelity, Taq (Example 3). Format: biochemical. How it is done: as §1, §2, §3

Another assay deals with OneTaq polymerase. As to the kind of experiment: PCR-based screen and amplification of DNA containing unnatural base pairs, OneTaq (Example 1). As to conditions: OneTaq. The format is biochemical. How it is done:
(§4) The triphosphates of the 6 group were prepared from the previously reported nucleosides (Kubelka, T., Slavetinska, L., Eigner, V. and Hocek, M. Synthesis of 2,6-disubstituted pyridin-3-yl C-2′-deoxyribonucleosides through chemoselective transformations of bromo-chloropyridine C-nucleosides. Org. Biomol. Chem., 11, 4702-4718) according to Ludwig, J. and Eckstein, F. Rapid and efficient synthesis of nucleoside 5′-0-(1-thiotriphosphates), 5′-triphosphates and 2′,3′-cyclophosphorothioates using 2-chloro-4H-1,3,2-benzodioxaphosphorin-4-one. J. Org. Chem., 54, 631-635. The purity of all other triphosphates was confirmed by MALDI-TOF and UV-VIS. Taq and OneTaq DNA polymerases were purchased from New England Biolabs (Ipswich, Mass.). A mixture of dNTPs was purchased from Fermentas (Glen Burnie, Md.). SYBR Green I Nucleic Acid Gel Stain (10,000×) was purchased from Life Technologies (Carlsbad, Calif.). The synthesis of the DNA templates, D8 (Malyshev, D. A., Dhami, K., Quach, H. T., Lavergne, T., Ordoukhanian, P., Torkamani, A. and Romesberg, F. E. Efficient and sequence-independent replication of DNA containing a third base pair establishes a functional six-letter genetic alphabet. Proc. Natl. Acad. Sci. USA, 109, 12005-12010), used for screening rounds 1-5, and D6 (Malyshev, D. A., Seo, Y. J., Ordoukhanian, P. and Romesberg, F. E. PCR with an expanded genetic alphabet. J. Am. Chem. Soc., 131, 14620-14621), used for all other amplifications, was described previously. Sanger sequencing was carried out as described previously (Malyshev, D. A., Dhami, K., Quach, H. T., Lavergne, T., Ordoukhanian, P., Torkamani, A. and Romesberg, F. E. Efficient and sequence-independent replication of DNA containing a third base pair establishes a functional six-letter genetic alphabet. Proc. Natl. Acad. Sci. USA, 109, 12005-12010). Raw Sanger sequencing traces were used to determine the percent retention of the unnatural base pairs, which was converted to fidelity per doubling, as described (Malyshev, D. A., Dhami, K., Quach, H. T., Lavergne, T., Ordoukhanian, P., Torkamani, A. and Romesberg, F. E. Efficient and sequence-independent replication of DNA containing a third base pair establishes a functional six-letter genetic alphabet. Proc. Natl. Acad. Sci. USA, 109, 12005-12010; Malyshev, D. A., Seo, Y. J., Ordoukhanian, P. and Romesberg, F. E. PCR with an expanded genetic alphabet. J. Am. Chem. Soc., 131, 14620-14621).
(§5) All PCR amplifications were performed in a CFX Connect Real-Time PCR Detection System (Bio-Rad), in a total volume of 25 μL using the following conditions: 1× OneTaq reaction buffer, 0.5× Sybr Green I, MgSO4 adjusted to 4.0 mM, 0.2 mM of each dNTP, 50 μM of each unnatural triphosphate, […] of Primer1 and Primer2 (See Table 2), and 0.02 U/μl of the DNA polymerase. Other conditions specific for each round of screening are described in Table 3. Amplified products were purified using DNA Clean and Concentrator-5 spin columns from Zymo Research (Irvine, Calif.). After purification, the PCR products were sequenced on a 3730 DNA Analyzer (Applied Biosystems) to determine the retention of the unnatural base pair as described below. Fidelity was characterized from unnatural base pair (UBP) retention as determined by sequencing with Primer1 on a 3730 DNA Analyzer (Applied Biosystems).
(§6) Specific PCR assay conditions. PCR with the most promising UBPs was carried out with the conditions as described in Table 3. PCR products were further purified on […] gels, followed by single band excision and subsequent clean up using the Zymo Research Zymoclean Gel DNA Recovery Kit. After elution with 20 μl of water, the DNA concentration was measured using fluorescent dye binding (Quant-iT dsDNA HS Assay kit, Life Technologies), and purified amplicons were sequenced in triplicate with both Primer1 and Primer2 to determine UBP retention and thus amplification fidelity. […]

Assay [2] addresses T1, Taq polymerase. Nature of the assay: PCR-based screen and amplification of DNA containing unnatural base pairs, Taq (Example 1). Format: biochemical. As to conditions: Taq, 10 s Extension, 52 cycles, D6 template. Here is the method:
as §4, §5, §6

The target in another assay is T7 RNA polymerase (Escherichia phage T7, UniProt P00573). As to conditions: ribonucleotide triphosphates, FIG. 7.
A short description of assay [3]: PCR incorporation of d5SICS α-thiotriphosphate opposite dNaM. Format: biochemical. Conditions: standard PCR. Here is the method:
The amplification efficiency and fidelity of incorporation of d(5SICS-αS)TP is greater than 99% and virtually identical to results obtained with d5SICS. To functionalize this unnatural base pair, we reacted the site-specifically incorporated phosphorothioate bond with iodoacetyl-PEG2-biotin to label the DNA duplex with the biotin functionality.^8 To characterize this site-specific adduct, we incubated it in the presence of streptavidin and then quantified the functionalization by gel shift assay. We were able to convert 60-70% of the phosphorothioate bond to the functionalized derivative, which is a standard efficiency (70%) for labeling protocols previously reported in literature (See Fidanza, J. A.; Ozaki, H.; McLaughlin, L. W., Site-specific labeling of DNA sequences containing phosphorothioate diesters. J. Am. Chem. Soc. […], 114 (14), 5509-5517.). These conjugated derivatives show high stability under conditions typical for heat denaturation of DNA duplexes, i.e. at 50° C. overnight within the range of pH 6.0-8.3 (<10% decomposition), as well as for at 95° C. for 3 minutes at pH 8.3 (<5% decomposition). We envision that the phosphorothioate strategy can be equally well employed with other unnatural base pairs, including d5SICS-dMMO2 and d5SICS-dNaM.

The mark [4] stands for this setting: OneTaq, standard PCR conditions.
Where [5] appears, read: 1 min Extension, 52 cycles, D6 template.

T1 sequence (P19821 whole entry): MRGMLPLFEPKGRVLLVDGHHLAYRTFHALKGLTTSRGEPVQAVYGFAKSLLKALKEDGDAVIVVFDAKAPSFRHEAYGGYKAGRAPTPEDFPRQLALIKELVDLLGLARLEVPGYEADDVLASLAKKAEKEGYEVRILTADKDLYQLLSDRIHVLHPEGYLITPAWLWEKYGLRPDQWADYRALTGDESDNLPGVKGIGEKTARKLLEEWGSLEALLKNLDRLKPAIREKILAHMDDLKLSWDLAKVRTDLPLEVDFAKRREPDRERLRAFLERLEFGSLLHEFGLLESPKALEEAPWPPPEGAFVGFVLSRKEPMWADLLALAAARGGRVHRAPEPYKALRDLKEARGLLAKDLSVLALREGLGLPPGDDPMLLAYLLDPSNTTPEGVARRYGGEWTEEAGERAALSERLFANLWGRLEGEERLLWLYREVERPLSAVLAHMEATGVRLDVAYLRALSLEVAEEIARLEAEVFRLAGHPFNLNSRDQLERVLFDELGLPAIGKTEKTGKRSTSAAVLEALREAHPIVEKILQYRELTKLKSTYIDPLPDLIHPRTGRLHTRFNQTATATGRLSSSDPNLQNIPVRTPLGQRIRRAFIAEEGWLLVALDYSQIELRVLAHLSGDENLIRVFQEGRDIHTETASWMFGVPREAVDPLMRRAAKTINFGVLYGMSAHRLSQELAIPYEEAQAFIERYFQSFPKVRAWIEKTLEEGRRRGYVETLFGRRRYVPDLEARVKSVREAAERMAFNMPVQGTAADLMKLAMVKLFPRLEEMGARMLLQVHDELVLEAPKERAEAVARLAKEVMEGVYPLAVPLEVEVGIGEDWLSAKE
Sequence of T7 RNA polymerase (P00573 whole entry): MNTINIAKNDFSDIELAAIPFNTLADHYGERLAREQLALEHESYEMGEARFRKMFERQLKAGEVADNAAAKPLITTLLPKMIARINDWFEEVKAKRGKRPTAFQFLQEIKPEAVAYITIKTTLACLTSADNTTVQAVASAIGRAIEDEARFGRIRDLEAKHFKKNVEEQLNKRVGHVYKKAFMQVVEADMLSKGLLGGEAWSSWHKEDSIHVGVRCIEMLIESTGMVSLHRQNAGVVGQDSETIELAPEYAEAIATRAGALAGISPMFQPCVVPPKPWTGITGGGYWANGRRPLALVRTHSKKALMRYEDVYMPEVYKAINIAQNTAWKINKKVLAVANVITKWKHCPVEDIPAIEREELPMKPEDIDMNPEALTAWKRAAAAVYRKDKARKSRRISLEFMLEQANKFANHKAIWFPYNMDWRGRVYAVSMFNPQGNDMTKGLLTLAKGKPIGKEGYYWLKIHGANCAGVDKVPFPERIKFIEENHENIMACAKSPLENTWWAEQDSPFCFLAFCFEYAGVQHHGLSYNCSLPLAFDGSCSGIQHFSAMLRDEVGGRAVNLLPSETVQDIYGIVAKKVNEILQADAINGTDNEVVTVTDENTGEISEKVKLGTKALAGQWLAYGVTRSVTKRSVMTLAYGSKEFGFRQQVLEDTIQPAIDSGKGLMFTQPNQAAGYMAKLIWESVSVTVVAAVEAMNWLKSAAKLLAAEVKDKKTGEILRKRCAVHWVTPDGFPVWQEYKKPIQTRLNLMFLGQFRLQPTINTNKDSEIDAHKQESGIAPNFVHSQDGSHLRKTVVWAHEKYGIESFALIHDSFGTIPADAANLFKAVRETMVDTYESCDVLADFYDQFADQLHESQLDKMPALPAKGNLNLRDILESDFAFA

Consider `COc1cc2ccccc2cc1[C@H]1C[C@H](O)[C@@H](COP(=O)(O)OP(=O)(O)OP(=O)(O)O)O1.O=P(O)(O)OP(=O)(O)OP(=O)(O)OC[C@H]1O[C@@H](n2ccc3ccsc3c2=S)C[C@@H]1O` [TPT3-NaM], for which the “Fidelity, %” value with OneTaq (OneTaq PCR (48 cycles), D6 template, dXTP with dNaMTP) is on record as > 99.98%. In the assay with OneTaq (setting [4]), the “amplification efficiency relative to DNA containing just the natural base pairs” value came out at 4 fold lower and the error rate was 10^−4 per nucleotide. Further, at Taq polymerase [1] (Taq PCR (20 cycles), D6 template, dXTP with dNaMTP), the “Fidelity, %” value amounted to 99.7%. In addition, at Taq polymerase [1] (Taq polymerase), the “amplification efficiency relative to a natural base pair” value amounted to 2.5 fold lower and the error rate is listed as 10^−3. Also, in the assay with OneTaq polymerase (16 cycles, 1 min extension), the “Fidelity, %” value is given as 99.92 ± 0.11% and the “Retention, %” value amounted to 99.23 ± 1.12%. In addition, the Amplification in the assay with OneTaq polymerase (16 cycles, 1 min extension, -^a = no amplification was detected) is given as 1004. In addition, in the assay on OneTaq polymerase (setting [5]), the “Amplification, ×10^12” value was 8.3 ×10^12; the “Fidelity per Doubling, %” value is given as 99.79 ± 0.03%; the “Retention, %” value turned out to be 91.2 ± 1.3%. Besides, at Taq polymerase [2], the “Amplification, ×10^12” value was 5.8 ×10^12; the “Fidelity per Doubling, %” value is 99.66 ± 0.01%; the “Retention, %” value came to 86.5 ± 0.5%.

Regarding `COc1cc(C)c(C#CCNC(=O)C(Cl)Cl)cc1[C@@H]1O[C@H](COP(=O)(O)OP(=O)(O)OP(=O)(O)O)[C@@H](O)[C@H]1O` [MMO2^PA], the “transcription into RNA” value on T7 RNA polymerase is “high efficiency and fidelity”.

Turning to `Cc1ccc2c(=S)n([C@H]3C[C@H](O)[C@@H](COP(O)(=S)OP(=O)(O)OP(=O)(O)O)O3)ccc2c1` (some centres unmarked) [d(5SICS-αS)TP], in assay [3], the “amplification efficiency and fidelity of incorporation” value was “greater than 99%”.
